Patent US20090069373A1, “Quinoline Acids” (Wyeth, priority 2007, published 2009)
pIC50: −log10 of the molar value.

Columns and labels:
human LXRα = molecular target: T1, human LXRα (Homo sapiens, UniProt Q13133); assay: Ligand-binding test procedure for human LXRα (3H T0901317 competition, flash plates); settings: biotinylated hLXRα, tracer 3H T0901317
T1 construct: biotin (biotinylated; biotinylation tag not described); made in house; host or cells: E. coli
T1 sequence (Q13133 1-447): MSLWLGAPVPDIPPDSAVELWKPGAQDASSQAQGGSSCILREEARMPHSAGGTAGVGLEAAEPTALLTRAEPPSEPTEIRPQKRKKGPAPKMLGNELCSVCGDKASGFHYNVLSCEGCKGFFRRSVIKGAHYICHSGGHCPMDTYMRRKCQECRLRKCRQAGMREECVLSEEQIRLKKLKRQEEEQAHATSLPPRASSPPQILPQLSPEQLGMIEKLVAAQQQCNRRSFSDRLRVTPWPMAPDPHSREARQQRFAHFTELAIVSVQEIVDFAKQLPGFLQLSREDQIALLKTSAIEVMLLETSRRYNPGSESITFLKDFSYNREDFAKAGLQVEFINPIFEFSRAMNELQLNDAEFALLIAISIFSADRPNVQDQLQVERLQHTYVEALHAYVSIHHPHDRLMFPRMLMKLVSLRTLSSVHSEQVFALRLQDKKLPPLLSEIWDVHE
Summary of the method: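 Competition binding of test ligands against 5 nM ³H tracer solution (pre-mix concentration) on biotinylated hLXRα from E. coli extract, captured on streptavidin flash plates (Bmax ~4000 cpm). Ligand dilution series made in DMSO. Incubated overnight at +4 °C; bound radioactivity counted after washing.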

human LXRβ = molecular target: T2, human LXRβ (Homo sapiens, UniProt P55055); assay: Ligand-binding test procedure for human LXRβ (3H T0901317 competition, flash plates); settings: for Binding ratio a/b: IC50 (μM) LXRα binding/IC50 (μM) LXRβ binding; for pIC50: biotinylated hLXRβ, tracer 3H T0901317
T2 construct: biotin (biotinylated; biotinylation tag not described); made in house; host or cells: E. coli
T2 sequence (P55055 1-460): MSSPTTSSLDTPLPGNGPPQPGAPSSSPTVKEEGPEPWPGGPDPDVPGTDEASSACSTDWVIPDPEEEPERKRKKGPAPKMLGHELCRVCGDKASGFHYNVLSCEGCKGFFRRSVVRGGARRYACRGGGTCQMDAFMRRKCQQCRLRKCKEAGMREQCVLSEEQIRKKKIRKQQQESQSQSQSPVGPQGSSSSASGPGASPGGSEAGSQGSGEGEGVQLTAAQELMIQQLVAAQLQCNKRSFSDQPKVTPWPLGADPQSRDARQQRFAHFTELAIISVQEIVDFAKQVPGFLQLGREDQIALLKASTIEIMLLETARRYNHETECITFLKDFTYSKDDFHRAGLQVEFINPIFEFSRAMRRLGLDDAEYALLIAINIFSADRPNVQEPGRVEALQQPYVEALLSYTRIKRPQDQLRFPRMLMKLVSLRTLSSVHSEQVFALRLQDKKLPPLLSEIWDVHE

Compound | pIC50 (human LXRα) | Binding ratio a/b (human LXRβ) | pIC50 (human LXRβ)
COc1ccc(C(=O)O)cc1OCc1cccc(-c2c(Cc3ccccc3)cnc3c(C(F)(F)F)cccc23)c1 [Example 98, 3-({3-[3-benzyl-8-(trifluoromethyl)quinolin-4-yl]benzyl}oxy)-4-methoxybenzoic acid] | 5.28 | 2 | 5.60
O=C(O)c1c[nH]c2ccc(NCc3cccc(-c4c(Cc5ccccc5)cnc5c(C(F)(F)F)cccc45)c3)cc12 [Example 99, 5-({3-[3-benzyl-8-(trifluoromethyl)quinolin-4-yl]benzyl}amino)-1H-indole-3-carboxylic acid] | 5.91 | 2 | 6.21
O=C(O)c1ccc(COc2cccc(-c3c(Cc4ccccc4)cnc4c(C(F)(F)F)cccc34)c2)cc1 [Example 100, 4-({3-[3-benzyl-8-(trifluoromethyl)quinolin-4-yl]phenoxy}methyl)benzoic acid] | 6.99 | 2 | 7.28
O=C(O)c1ccc(NCc2cccc(-c3c(Cc4ccccc4)cnc4c(C(F)(F)F)cccc34)c2)cc1 [Example 101, 4-({3-[3-benzyl-8-(trifluoromethyl)quinolin-4-yl]benzyl}amino)benzoic acid] | 6.45 | 2 | 6.74
Cc1ccc(OCc2cccc(-c3c(Cc4ccccc4)cnc4c(C(F)(F)F)cccc34)c2)c(C(=O)O)c1 [Example 102, 2-({3-[3-benzyl-8-(trifluoromethyl)quinolin-4-yl]benzyl}oxy)-5-methylbenzoic acid] | 5.32 | 2 | 5.55
Cc1c(NCc2cccc(-c3c(Cc4ccccc4)cnc4c(C(F)(F)F)cccc34)c2)ccc(C(=O)O)c1C [Example 103, 4-({3-[3-benzyl-8-(trifluoromethyl)quinolin-4-yl]benzyl}amino)-2,3-dimethylbenzoic acid] | 5.30 | 2 | 5.48
O=C(O)c1cc(F)ccc1OCc1cccc(-c2c(Cc3ccccc3)cnc3c(C(F)(F)F)cccc23)c1 [Example 104, 2-({3-[3-benzyl-8-(trifluoromethyl)quinolin-4-yl]benzyl}oxy)-5-fluorobenzoic acid] | 5.49 | 1 | 5.67
Cn1c(C(=O)O)cc2cccc(NCc3cccc(-c4c(Cc5ccccc5)cnc5c(C(F)(F)F)cccc45)c3)c21 [Example 105, 7-({3-[3-benzyl-8-(trifluoromethyl)quinolin-4-yl]benzyl}amino)-1-methyl-1H-indole-2-carboxylic acid] | 6.73 | 1 | 6.89
Cc1cnc2c(C(F)(F)F)cccc2c1-c1cccc(CNc2cc(F)ccc2C(=O)O)c1 [Example 106, 4-fluoro-2-({3-[3-methyl-8-(trifluoromethyl)quinolin-4-yl]benzyl}amino)benzoic acid] | 5.14 | 1 | 5.28
O=C(O)Cc1cccc2ccc(OCc3cccc(-c4ccnc5c(C(F)(F)F)cccc45)c3)cc12 [Example 107, [7-({3-[8-(trifluoromethyl)quinolin-4-yl]benzyl}oxy)-1-naphthyl]acetic acid] | 5.13 | 1 | 5.26
Cc1c(C(=O)O)cc(Br)c(NCc2cccc(-c3c(Cc4ccccc4)cnc4c(C(F)(F)F)cccc34)c2)c1C [Example 108, 4-({3-[3-benzyl-8-(trifluoromethyl)quinolin-4-yl]benzyl}amino)-5-bromo-2,3-dimethylbenzoic acid] | 5.44 | 1 | 5.56
O=C(O)c1cc2ccccc2cc1OCc1cccc(-c2c(Cc3ccccc3)cnc3c(C(F)(F)F)cccc23)c1 [Example 109, 3-({3-[3-benzyl-8-(trifluoromethyl)quinolin-4-yl]benzyl}oxy)-2-naphthoic acid] | 5.44 | 1 | 5.56
O=C(O)c1ccc(NCc2cccc(-c3c(Cc4ccccc4)cnc4c(C(F)(F)F)cccc34)c2)c(OC(F)(F)F)c1 [Example 110, 4-({3-[3-benzyl-8-(trifluoromethyl)quinolin-4-yl]benzyl}amino)-3-(trifluoromethoxy)benzoic acid] | 5.69 | 1 | 5.80
O=C(O)c1c(Cl)cccc1NCc1cccc(-c2c(Cc3ccccc3)cnc3c(C(F)(F)F)cccc23)c1 [Example 111, 2-({3-[3-benzyl-8-(trifluoromethyl)quinolin-4-yl]benzyl}amino)-6-chlorobenzoic acid] | 6.06 | 1 | 6.15

The next lines start with the values.

pIC50 (human LXRα) | Binding ratio a/b (human LXRβ) | pIC50 (human LXRβ) | Compound
6.29 | 1 | 6.33 | O=C(O)c1cc(F)ccc1NCc1cccc(-c2c(Cc3ccccc3)cnc3c(C(F)(F)F)cccc23)c1 [Example 112, 2-({3-[3-benzyl-8-(trifluoromethyl)quinolin-4-yl]benzyl}amino)-5-fluorobenzoic acid]
5.77 | 1 | 5.81 | O=C(O)c1ccc(COc2cccc(-c3c(Cc4ccccc4)cnc4c(C(F)(F)F)cccc34)c2)c(Cl)c1 [Example 113, 4-({3-[3-benzyl-8-(trifluoromethyl)quinolin-4-yl]phenoxy}methyl)-3-chlorobenzoic acid]
5.89 | 1 | 5.92 | O=C(O)Cc1ccc2cccc(OCc3cccc(-c4c(Cc5ccccc5)cnc5c(C(F)(F)F)cccc45)c3)c2c1 [Example 114, [8-({3-[3-benzyl-8-(trifluoromethyl)quinolin-4-yl]benzyl}oxy)-2-naphthyl]acetic acid]
4.97 | 1 | 4.99 | Cc1cnc2c(C(F)(F)F)cccc2c1-c1cccc(CNc2cccc(F)c2C(=O)O)c1 [Example 115, 2-fluoro-6-({3-[3-methyl-8-(trifluoromethyl)quinolin-4-yl]benzyl}amino)benzoic acid]
< 5.00 |  | 4.80 | O=C(O)Cc1cccc2c(NCc3cncc(-c4ccnc5c(C(F)(F)F)cccc45)c3)cccc12 [Example 116, {5-[({5-[8-(trifluoromethyl)quinolin-4-yl]pyridin-3-yl}methyl)amino]-1-naphthyl}acetic acid]
< 6.00 |  | 5.60 | Cc1cc(NCc2cncc(-c3c(C)cnc4c(C(F)(F)F)cccc34)c2)c(C)cc1CC(=O)O [Example 117, {2,5-dimethyl-4-[({5-[3-methyl-8-(trifluoromethyl)quinolin-4-yl]pyridin-3-yl}methyl)amino]phenyl}acetic acid]
< 6.00 |  | 5.43 | O=C(O)Cc1cccc2c(OCc3cncc(-c4ccnc5c(C(F)(F)F)cccc45)c3)cccc12 [Example 118, [5-({5-[8-(trifluoromethyl)quinolin-4-yl]pyridin-3-yl}methoxy)-1-naphthyl]acetic acid]
< 6.00 |  | 5.14 | Cc1cnc2c(C(F)(F)F)cccc2c1-c1cncc(CNc2cccc3c(CC(=O)O)cccc23)c1 [Example 119, {5-[({5-[3-methyl-8-(trifluoromethyl)quinolin-4-yl]pyridin-3-yl}methyl)amino]-1-naphthyl}acetic acid]
< 6.00 |  | < 6.00 | O=C(O)Cc1ccc(NCc2cncc(-c3ccnc4c(C(F)(F)F)cccc34)c2)cc1 [Example 120, {4-[({5-[8-(trifluoromethyl)quinolin-4-yl]pyridin-3-yl}methyl)amino]phenyl}acetic acid]
5.77 | 1 | 5.64 | O=C(O)c1cnc(Oc2cccc(-c3c(Cc4ccccc4)cnc4c(C(F)(F)F)cccc34)c2)cn1 [Example 121, 5-{3-[3-Benzyl-8-(trifluoromethyl)quinolin-4-yl]phenoxy}pyrazine-2-carboxylic acid]
5.82 | 2 | 6.11 | O=C(O)c1cc(Br)cc(Oc2cccc(-c3c(Cc4ccccc4)cnc4c(Cl)cccc34)c2)c1 [Example 122, 3-[3-(3-Benzyl-8-chloroquinolin-4-yl)phenoxy]-5-bromobenzoic acid]
6.14 | 2 | 6.32 | O=C(O)c1cc(F)cc(Oc2cccc(-c3c(Cc4ccccc4)cnc4c(Cl)cccc34)c2)c1 [Example 123, 3-[3-(3-Benzyl-8-chloroquinolin-4-yl)phenoxy]-5-fluorobenzoic acid]
